Results: publication PMC7527212 (Science Advances, 2020)

Tests used:
F143W mutant of Bcl-xL = experiment: ITC measurement of Bak BH3 peptide binding, F143W mutant; parameters: species or system human; conditions: ratio of KA by ITC, F143W vs WT Bcl-xL
WT Bcl-xL = experiment: NMR titration / chemical shift perturbation; assay type: binding, human

## NH3-GQVGRQLAIIGDDINR-COOH [Bak BH3 peptide]
F143W mutant of Bcl-xL
  affinity increase, F143W mutant versus WT Bcl-xL: twofold

## NH3-YPLGSPLWRLHS-COOH [P1]
WT Bcl-xL; NMR, 160 μM peptide added to 100 μM WT Bcl-xL, 10 mM NaPi pH 6.8, 2 mM DTT, 298 K
  CSP in the cryptic site: clear CSP in the cryptic site
WT Bcl-xL; concluded from NMR CSPs, 160 μM peptide, 100 μM WT Bcl-xL
  binding to WT Bcl-xL (binding mode): binds to the WT Bcl-xL with the expected binding mode
